Several values for one entry are separate records, joined by “and”; a condition that tells them apart may be missing. Equal entries are not always repeated.
Experiments:
Format in all cases: binding
SARS-CoV-2 PLpro L253A = SARS-CoV-2 PLpro L253A (Severe acute respiratory syndrome coronavirus 2, UniProt P0DTD1, L1816A)
SARS-CoV-2 Mpro F291A = SARS-CoV-2 Mpro F291A (Severe acute respiratory syndrome coronavirus 2, UniProt P0DTD1, F3554A)
SARS-CoV-2 PLpro T257A = SARS-CoV-2 PLpro T257A (Severe acute respiratory syndrome coronavirus 2, UniProt P0DTD1, T1820A)
SARS-CoV-2 PLpro Y273A = SARS-CoV-2 PLpro Y273A (Severe acute respiratory syndrome coronavirus 2, UniProt P0DTD1, Y1836A)
SARS-CoV-2 PLpro E252A = SARS-CoV-2 PLpro E252A (Severe acute respiratory syndrome coronavirus 2, UniProt P0DTD1, E1815A)
SARS-CoV-2 PLpro V303A = SARS-CoV-2 PLpro V303A (Severe acute respiratory syndrome coronavirus 2, UniProt P0DTD1, V1866A)
SARS-CoV-2 PLpro R166A = SARS-CoV-2 PLpro R166A (Severe acute respiratory syndrome coronavirus 2, UniProt P0DTD1, R1729A)
SARS-CoV-2 PLpro Y251A = SARS-CoV-2 PLpro Y251A (Severe acute respiratory syndrome coronavirus 2, UniProt P0DTD1, Y1814A)
SARS-CoV-2 PLpro Y268A = SARS-CoV-2 PLpro Y268A (Severe acute respiratory syndrome coronavirus 2, UniProt P0DTD1, Y1831A)
SARS-CoV-2 Mpro R4A = SARS-CoV-2 Mpro R4A (Severe acute respiratory syndrome coronavirus 2, UniProt P0DTD1, R3267A)
SARS-CoV-2 Mpro K5A = SARS-CoV-2 Mpro K5A (Severe acute respiratory syndrome coronavirus 2, UniProt P0DTD1, K3268A)
SARS-CoV-2 Mpro Y126A = SARS-CoV-2 Mpro Y126A (Severe acute respiratory syndrome coronavirus 2, UniProt P0DTD1, Y3389A)
SARS-CoV-2 PLpro Y264A = SARS-CoV-2 PLpro Y264A (Severe acute respiratory syndrome coronavirus 2, UniProt P0DTD1, Y1827A)
SARS-CoV-2 Mpro N142A = SARS-CoV-2 Mpro N142A (Severe acute respiratory syndrome coronavirus 2, UniProt P0DTD1, N3405A)
SARS-CoV-2 PLpro K254A = SARS-CoV-2 PLpro K254A (Severe acute respiratory syndrome coronavirus 2, UniProt P0DTD1, K1817A)
SARS-CoV-2 Mpro F3A = SARS-CoV-2 Mpro F3A (Severe acute respiratory syndrome coronavirus 2, UniProt P0DTD1, F3266A)
SARS-CoV-2 PLpro F258A = SARS-CoV-2 PLpro F258A (Severe acute respiratory syndrome coronavirus 2, UniProt P0DTD1, F1821A)
SARS-CoV-2 Mpro E288A = SARS-CoV-2 Mpro E288A (Severe acute respiratory syndrome coronavirus 2, UniProt P0DTD1, E3551A)
SARS-CoV-2 PLpro D164A = SARS-CoV-2 PLpro D164A (Severe acute respiratory syndrome coronavirus 2, UniProt P0DTD1, D1727A)

Compound: Cc1cc(O)c(O)c(Oc2cc(C)cc(O)c2Oc2cc(C)cc(O)c2O)c1 [Sydowiol B, sydowiol B]
- Tm value (SARS-CoV-2 PLpro L253A): 50.09 ± 0.49 °C
- Tm value (SARS-CoV-2 Mpro F291A): 61.29 ± 0.01 (-0.08) ℃ and 61.37 ± 0.01 (0.00) ℃ and 61.44 ± 0.01 (0.07) ℃
- △Tm (SARS-CoV-2 Mpro F291A): 61.29 ± 0.01 (-0.08) ℃ and 61.37 ± 0.01 (0.00) ℃ and 61.44 ± 0.01 (0.07) ℃
- Tm value (SARS-CoV-2 PLpro T257A): 47.76 ± 0.27 (4.16) ℃
- △Tm (SARS-CoV-2 PLpro T257A): 47.76 ± 0.27 (4.16) ℃
- Tm value (SARS-CoV-2 PLpro Y273A): 51.09 ± 0.23 (-0.85) ℃ and 50.59 ± 0.10 (-1.35) ℃ and 51.21 ± 0.00 (-0.73) ℃
- △Tm (SARS-CoV-2 PLpro Y273A): 51.09 ± 0.23 (-0.85) ℃ and 50.59 ± 0.10 (-1.35) ℃ and 51.21 ± 0.00 (-0.73) ℃
- Tm value (SARS-CoV-2 PLpro E252A): 44.10 ± 0.20 (0.75) ℃ and 45.88 ± 0.48 (2.53) ℃ and 47.86 ± 0.13 (4.51) ℃
- △Tm (SARS-CoV-2 PLpro E252A): 44.10 ± 0.20 (0.75) ℃ and 45.88 ± 0.48 (2.53) ℃ and 47.86 ± 0.13 (4.51) ℃
- Tm value (SARS-CoV-2 PLpro V303A): 52.24 ± 0.13 (5.12) ℃
- △Tm (SARS-CoV-2 PLpro V303A): 52.24 ± 0.13 (5.12) ℃
- Tm value (SARS-CoV-2 PLpro R166A): 50.86 ± 0.55 (3.18) ℃
- △Tm (SARS-CoV-2 PLpro R166A): 50.86 ± 0.55 (3.18) ℃
- Tm value (SARS-CoV-2 PLpro Y251A): 47.78 ± 0.39 (2.41) ℃ and 46.46 ± 0.07 (1.09) ℃
- △Tm (SARS-CoV-2 PLpro Y251A): 47.78 ± 0.39 (2.41) ℃ and 46.46 ± 0.07 (1.09) ℃
- Tm value (SARS-CoV-2 PLpro Y268A): 50.46 ± 0.65 (3.82) ℃
- △Tm (SARS-CoV-2 PLpro Y268A): 50.46 ± 0.65 (3.82) ℃
- Tm value (SARS-CoV-2 Mpro R4A): 54.54 ± 0.06 (0.84) ℃ and 54.25 ± 0.27 (0.55) ℃ and 54.16 ± 0.03 (0.46) ℃
- △Tm (SARS-CoV-2 Mpro R4A): 54.54 ± 0.06 (0.84) ℃ and 54.25 ± 0.27 (0.55) ℃ and 54.16 ± 0.03 (0.46) ℃
- Tm value (SARS-CoV-2 Mpro K5A): 47.98 ± 0.07 (0.63) ℃
- △Tm (SARS-CoV-2 Mpro K5A): 47.98 ± 0.07 (0.63) ℃
- Tm value (SARS-CoV-2 Mpro Y126A): 47.88 ± 0.22 (1.58) ℃
- △Tm (SARS-CoV-2 Mpro Y126A): 47.88 ± 0.22 (1.58) ℃
- Tm value (SARS-CoV-2 PLpro Y264A): 46.21 ± 0.86 (0.01) ℃ and 45.93 ± 0.03 (-0.27) ℃ and 46.48 ± 0.43 (0.28) ℃
- △Tm (SARS-CoV-2 PLpro Y264A): 46.21 ± 0.86 (0.01) ℃ and 45.93 ± 0.03 (-0.27) ℃ and 46.48 ± 0.43 (0.28) ℃
- Tm value (SARS-CoV-2 Mpro N142A): 58.18 ± 0.03 (5.56) ℃ and 57.22 ± 0.07 (4.60) ℃ and 56.43 ± 0.24 (3.81) ℃
- △Tm (SARS-CoV-2 Mpro N142A): 58.18 ± 0.03 (5.56) ℃ and 57.22 ± 0.07 (4.60) ℃ and 56.43 ± 0.24 (3.81) ℃
- Tm value (SARS-CoV-2 PLpro K254A): 46.61 ± 0.16 (3.31) ℃ and 46.23 ± 0.29 (2.93) ℃
- △Tm (SARS-CoV-2 PLpro K254A): 46.61 ± 0.16 (3.31) ℃ and 46.23 ± 0.29 (2.93) ℃
- Tm value (SARS-CoV-2 Mpro F3A): 53.05 ± 0.12 (1.05) ℃ and 52.84 ± 0.19 (0.84) ℃ and 53.05 ± 0.03 (1.05) ℃
- △Tm (SARS-CoV-2 Mpro F3A): 53.05 ± 0.12 (1.05) ℃ and 52.84 ± 0.19 (0.84) ℃ and 53.05 ± 0.03 (1.05) ℃
- Tm value (SARS-CoV-2 PLpro F258A): 47.68 ± 0.06 °C
- Tm value (SARS-CoV-2 Mpro E288A): 54.03 ± 0.10 (1.14) ℃ and 53.21 ± 0.11 (0.32) ℃
- △Tm (SARS-CoV-2 Mpro E288A): 54.03 ± 0.10 (1.14) ℃ and 53.21 ± 0.11 (0.32) ℃
- Tm value (SARS-CoV-2 PLpro D164A): 44.58 ± 0.62 (2.03) ℃ and 45.84 ± 0.11 (3.29) ℃ and 46.83 ± 0.21 (4.28) ℃
- △Tm (SARS-CoV-2 PLpro D164A): 44.58 ± 0.62 (2.03) ℃ and 45.84 ± 0.11 (3.29) ℃ and 46.83 ± 0.21 (4.28) ℃

From PMC11699025 (Natural Products and Bioprospecting, 2025)
